# Assay results from patent EP0003461A1, “Aminoalcohol derivatives of ortho-hydroxy-methyl cinnamate, process for their preparation and medicines containing them” (LIPHA, LYONNAISE INDUSTRIELLE PHARMACEUTIQUE, priority 1978, dated 1979).
# Assays:
# [1] = Clinical trial observations in patients given 200 mg tablets; type: in vivo
# Experimental: Parmi les observations recueillies en essai clinique, avec administration de comprimés titrés à 200 mg de principe actif, le chlorhydrate de l'ortho [(diméthoxy-3,4 phénéthylamino) -3 hydroxy-2 propoxy] trans cinnamate de méthyle, on peut rapporter les trois suivantes : • Observation N°1: • Monsieur NOV...., 64 ans présente un état de mal angineux chroniaue avec huit crises par 24 heures. Le traitement consiste en un repos et la prise d'un comprimé à 200 mg du composé exemple 1 24 heures pendant 10 jours. Le résultat est un effet bradycardisant net; le pouls passe de 95 à 60 et une très nette diminution des crises dès le deuxième jour (2 à 3 par 24 heures) est notée. La tolérance est très bonne. • Obseryation N°2: • Monsieur CLI...., 75 ans présente un bloc auriculo- ventriculaire complet appareillé par pace-maker cardis à un rythme fixe (68/mn) avec parpsystolie. A l'suscultation on note un souffle systolique en écharpe. L'électrocardiogramme montre une paracystolie avec complexes spontanés à F.R. long et aspect de bloc gauche et co-plexe électro- entrainés. La radiographie montre une hypertrophie ventriculaire gauche modérée. Le traitement consiste en la prise journalière pendant 10 jours du composé exemple 1 à 200 mg.
# Monsieur HEL ...., 44 ans a une hypertension artérielle depuis 3 ans; les chiffres habituels récents sont 180/110 mn Mg. L'étiologie est inconnue et il n'y a pas de complications. On associe au traitement consistant en la prise le matin d' 1 comprimé à 200 mg, pendant 15 jours, un régime hyposodé.
# récepteurs bêta-1 = assay: Inhibition of isoprenaline-induced tachycardia in the anaesthetised, bivagotomised dog; type: in vivo, chien; settings: dog anaesthetised with pentobarbital, isoprénaline 0,4 µg/kg/I.V., beta-1 blockade
# Experimental: […]'action sur […] tension artérielle et du rythme cardiaque du […]é au pentobarbital et bivagotomisé recevant des injections […] (0,4 μg/kg/I.V.). L'hypotension provoquée par l'isoprénaline est due à une stimulation des récepteurs bêta-2 qui […] une vasodilatation. La […] produite par l'isopré- naline est due à une stimulation des récepteursbêta-1 cardiaques oui […] une accélération de son rythme de contraction. Dans l'inhibition […] visualisant un effet de blocage des récepteurs bêta-1, on a déterminé la dose efficace 50 en mg/kg/I.V.
# récepteurs bêta-2 = assay: Inhibition of isoprenaline-induced hypotension in the anaesthetised, bivagotomised dog; type: in vivo, chien; settings: dog anaesthetised with pentobarbital, isoprénaline 0,4 µg/kg/I.V., beta-2 blockade
# Source text: L'hypotension provoquée par l'isoprénaline est due à une stimulation des récepteurs bêta-2 qui entraîne une vasodilatation. La tachycardie produite par l'isopré- naline est due à une stimulation des récepteursbêta-1 cardiaques oui entraîne une accélération de son rythme de contraction.
smiles,measurement,setting,value
"COC(=O)/C=C/c1ccccc1OCC(O)CNCCc1ccc(OC)c(OC)c1 (racemic) [Composé exemple 1, trans ortho [(3-4 diméthoxyphénéthyl)amino-3 hydroxy-2 propoxy] cinnamatede méthyle]",tolérance,[1]; Observation N°1: 200 mg per 24 h for 10 days,très bonne
same,crises par 24 heures,"[1]; Observation N°1: angina attacks from the second day, one 200 mg tablet per 24 h, before treatment eight per 24 h",2 à 3 par 24 heures
same,pouls,"[1]; Observation N°1: patient, chronic angina, one 200 mg tablet per 24 h for 10 days, before treatment 95",60
same,tolérance,[1]; Observation N°2: 200 mg daily for 10 days,très bonne
same,résultat,"[1]; Observation N°2: patient, complete AV block with pacemaker and parasystole, 200 mg daily for 10 days",disparition de la para- systolie
same,"Pouls, Après","[1]; Observation N°3: after treatment, 200 mg per day for 15 days, before 70",60
same,"Tension artérielle debout, Après","[1]; Observation N°3: after treatment, 200 mg per day for 15 days, before 160/100",140/88
same,"Tension artérielle couché, Après","[1]; Observation N°3: after treatment, 200 mg per day for 15 days, before 165/102",140/90
same,tolérance,"[1]; Observation N°3: general and local tolerance, 200 mg per day for 15 days",bonne
same,résultat,"[1]; Observation N°3: patient, arterial hypertension, one 200 mg tablet in the morning for 15 days, with low-sodium diet",très bon
"CC(=O)Nc1ccc(OCC(O)CNC(C)C)cc1 (stereo not drawn) [Fractolol, 4' - [2-hydroxy-3 - (iso-propylamino)propoxy] acétanilide]","dose efficace 50 (DE 50), inhibition de la tachycardie à l'isoprénaline",récepteurs bêta-1,"0,61 mg/kg/I.V."
"COC(=O)/C=C/c1ccccc1OCC(O)CNC(C)C (stereo not drawn) [LM 748, chlorhydrate de l'ortho (isopropylamino 3 - hydroxy-2 propoxy) trans cinnamate de méthyle]","dose efficace 50 (DE 50), inhibition de l'hypotension à l'isoprénaline",récepteurs bêta-2,"0,01 mg/kg/I.V."
